Laboratory results published in ChEMBL document CHEMBL4024787, “Target Identification and Mode of Action of Four Chemically Divergent Drugs against Ebolavirus Infection” (J Med Chem, 2018).

Tests used:
[1] = molecular target: T1, Envelope glycoprotein (Zaire ebolavirus (strain Mayinga-76) (ZEBOV) (Zaire Ebola virus)) (UniProt Q05320); assay: Binding affinity to Ebola virus Zaire Mayinga-76 recombinant GP protein assessed as change in melting temperature at 500 uM by SYPRO orange dye-based fluorescence assay; conditions: 1976
T1 sequence (whole entry): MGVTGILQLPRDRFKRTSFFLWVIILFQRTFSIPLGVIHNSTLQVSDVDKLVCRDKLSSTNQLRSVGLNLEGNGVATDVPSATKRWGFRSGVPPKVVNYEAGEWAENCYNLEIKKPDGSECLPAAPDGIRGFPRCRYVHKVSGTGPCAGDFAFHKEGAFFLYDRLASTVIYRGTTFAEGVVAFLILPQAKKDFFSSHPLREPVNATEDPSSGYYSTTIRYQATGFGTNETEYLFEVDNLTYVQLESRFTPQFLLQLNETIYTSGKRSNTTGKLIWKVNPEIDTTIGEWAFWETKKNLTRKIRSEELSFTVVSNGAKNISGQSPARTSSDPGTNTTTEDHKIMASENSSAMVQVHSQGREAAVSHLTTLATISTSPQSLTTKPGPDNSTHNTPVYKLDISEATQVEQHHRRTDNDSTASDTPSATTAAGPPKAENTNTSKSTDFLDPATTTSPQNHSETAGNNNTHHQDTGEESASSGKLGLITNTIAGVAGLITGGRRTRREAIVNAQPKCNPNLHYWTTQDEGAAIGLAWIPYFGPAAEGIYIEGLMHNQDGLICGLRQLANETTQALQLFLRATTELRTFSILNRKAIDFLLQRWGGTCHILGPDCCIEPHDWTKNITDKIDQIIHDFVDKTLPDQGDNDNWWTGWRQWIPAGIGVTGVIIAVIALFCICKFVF

Ebolavirus [2] = assay: microbe, parasite or virus in culture; assay type: functional; conditions: Orthoebolavirus, Vero C1008, 48 h
Envelope glycoprotein = molecular target: T2, Envelope glycoprotein (Zaire ebolavirus (strain Mayinga-76) (ZEBOV) (Zaire Ebola virus), UniProt Q05320); assay: Binding affinity to Ebola virus Zaire Mayinga-76 recombinant GP protein by SYPRO orange dye-based fluorescence assay; parameters: species or system 1976
T2 sequence (Q05320 whole entry): T1 sequence (whole entry)

Ebolavirus [3] = assay: microbe, parasite or virus in culture; assay type: functional, cell-based; conditions: Orthoebolavirus, HepG2, 48 h

SMILES	ΔTm [1] [°C]	IC50 (Ebolavirus [2]) [µM]	Kd (Envelope glycoprotein) [µM]	IC50 (Ebolavirus [3]) [µM]
CN1[C@@H]2CC[C@@H]1CC(OC(c1ccccc1)c1ccccc1)C2 (relative stereo)	-6			
CC(C)COCC(CN(Cc1ccccc1)c1ccccc1)N1CCCC1 (configuration not stated) [BEPRIDIL]	-6	5.08	290	3.21
Fc1ccc([C@@H]2CCNC[C@H]2COc2ccc3c(c2)OCO3)cc1 [PAROXETINE]	-4	7.45	650	1.38
CN[C@H]1CC[C@@H](c2ccc(Cl)c(Cl)c2)c2ccccc21 [SERTRALINE]	-3			
CN(C)CCOc1ccc(/C(=C(/CCCl)c2ccccc2)c2ccccc2)cc1 [TOREMIFENE]		0.162		0.026
